Experimental data from patent publication US10676504B2 (Colorado State University Research Foundation, priority 2015, dated 2020).
Read-outs that look alike come from different tables or passages of the source.

Key:
[1] = biological target: T1, HDAC3/NCor2 (Homo sapiens, UniProt O15379); test: HDAC biochemical assay (Example 16)
T1 construct: recombinant, full-length HDAC protein; purchased BPS Biosciences
Description: Thus, small-molecule inhibitors were arrayed at twelve-point dose-response (3-fold increments) in 384-well library plates and transferred by robotic pin device to replicate assay plates containing assay buffer under reducing conditions (TCEP 200 μM). A liquid handling device then transferred a tripeptide substrate terminating in acetyl-lysine and amide conjugated to 4-methyl-7-aminocoumarin (AMC), recombinant human histone deacetylase (BPS Bioscience, San Diego, Calif.), and recombinant human trypsin (Sigma-Aldrich, St. Louis, Mo.). Following deacetylase hydrolysis of acetyl-lysine, trypsin cleavage liberated the AMC fluorophore. Kinetic (fluorescence per unit time) and end-point (total fluorescence) data were captured by a multilabel plate reader. Replicate data were analyzed by curve-fit using logistic regression (Spotfire Decision-Site).

[2] = biological target: T2, HDAC3 (Homo sapiens, UniProt O15379); test: HDAC biochemical assay of P5-P12 (Table P1)
T2 construct: The recombinant, full-length HDAC protein (BPS Biosciences) was incubated; purchased BPS Biosciences
T2 sequence (O15379 whole entry): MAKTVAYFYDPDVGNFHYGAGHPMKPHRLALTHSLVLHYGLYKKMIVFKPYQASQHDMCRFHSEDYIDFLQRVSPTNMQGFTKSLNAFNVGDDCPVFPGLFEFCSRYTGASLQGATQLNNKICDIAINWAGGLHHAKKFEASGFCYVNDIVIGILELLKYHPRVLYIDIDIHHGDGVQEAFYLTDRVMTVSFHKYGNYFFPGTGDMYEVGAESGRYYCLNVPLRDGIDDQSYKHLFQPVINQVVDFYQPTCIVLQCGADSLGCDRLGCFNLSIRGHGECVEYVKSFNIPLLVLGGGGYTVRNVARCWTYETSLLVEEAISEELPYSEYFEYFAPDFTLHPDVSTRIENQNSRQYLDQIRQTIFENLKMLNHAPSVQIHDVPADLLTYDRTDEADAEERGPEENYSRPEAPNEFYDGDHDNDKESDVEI
T2 sequence (Q9Y618 395-489 partner limits assumed): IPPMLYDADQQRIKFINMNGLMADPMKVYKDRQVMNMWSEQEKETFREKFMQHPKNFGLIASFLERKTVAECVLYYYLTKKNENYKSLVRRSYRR

[3] = biological target: HDAC1 (Homo sapiens, UniProt Q13547); test: HDAC biochemical assay of P5-P12 (Table P1); set-up: The recombinant, full-length HDAC protein (BPS Biosciences) was incubated; purchased BPS Biosciences
HDAC1, sequence (Q13547 whole entry): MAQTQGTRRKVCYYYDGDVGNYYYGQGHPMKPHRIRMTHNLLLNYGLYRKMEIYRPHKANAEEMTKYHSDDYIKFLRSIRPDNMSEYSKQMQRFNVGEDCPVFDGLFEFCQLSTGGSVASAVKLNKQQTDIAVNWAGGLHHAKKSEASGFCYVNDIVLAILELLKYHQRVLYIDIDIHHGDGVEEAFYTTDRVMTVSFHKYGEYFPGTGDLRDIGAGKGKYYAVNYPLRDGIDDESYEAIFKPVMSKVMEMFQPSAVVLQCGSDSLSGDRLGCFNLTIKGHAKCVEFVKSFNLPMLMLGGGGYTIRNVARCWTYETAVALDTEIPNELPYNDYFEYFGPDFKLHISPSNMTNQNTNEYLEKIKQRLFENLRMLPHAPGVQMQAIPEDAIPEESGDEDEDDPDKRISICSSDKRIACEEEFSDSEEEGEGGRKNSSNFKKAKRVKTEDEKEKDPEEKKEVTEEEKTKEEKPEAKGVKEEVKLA

[4] = biological target: T3, HDAC2 (Homo sapiens, UniProt Q92769); test: HDAC biochemical assay of P5-P12 (Table P1); set-up: The recombinant, full-length HDAC protein (BPS Biosciences) was incubated; purchased BPS Biosciences
T3 sequence (Q92769 whole entry): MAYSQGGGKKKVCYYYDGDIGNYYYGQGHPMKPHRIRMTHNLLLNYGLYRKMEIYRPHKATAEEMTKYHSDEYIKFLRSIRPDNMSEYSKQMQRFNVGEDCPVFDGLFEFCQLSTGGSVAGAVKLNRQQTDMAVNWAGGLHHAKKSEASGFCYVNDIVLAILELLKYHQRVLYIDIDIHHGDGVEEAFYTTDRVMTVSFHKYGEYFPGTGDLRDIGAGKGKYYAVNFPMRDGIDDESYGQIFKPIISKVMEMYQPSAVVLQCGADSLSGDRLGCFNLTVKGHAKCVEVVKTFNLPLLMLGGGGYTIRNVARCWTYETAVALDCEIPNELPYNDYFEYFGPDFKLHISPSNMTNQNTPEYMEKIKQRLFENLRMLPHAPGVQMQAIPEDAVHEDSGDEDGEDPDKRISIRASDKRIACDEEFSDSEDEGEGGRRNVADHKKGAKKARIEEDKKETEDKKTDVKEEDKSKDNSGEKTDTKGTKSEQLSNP

[5] = system: HDACs 1-3; test: HDAC biochemical assay of P5-P12, summary statements
[6] = biological target: T3, HDAC2; test: HDAC2 inhibition, trypsin-coupled kinetic fluorescence homogeneous assay (Example 10); format: biochemical; set-up: The recombinant, full-length HDAC protein (BPS Biosciences) was incubated; purchased BPS Biosciences; conditions: Conc (uM); logistic curve fit of activity versus concentration; some fits reached max iterations; read-out: X50
Description: To measure the inhibitory effect on deacetylase function in vitro, a continuous kinetic biochemical assay miniaturized to 384-well plate format was optimized.
Fluorescence measurements were obtained in real-time on a Varioskan microtiter plate reader (Thermo).
A biochemical study of HDAC2 inhibition was carried out using the trypsin-coupled, kinetic fluorescence homogeneous assay described above.

[7] = system: NCI-60 cancer cell lines; conditions: five-dose
Excerpt: (§1) All compounds submitted for screening were initially tested at a single high dose (10^-5 M) against the fill NCI 60 cell panel. Only compounds which satisfied pre-determined threshold inhibition criteria in a minimum number of cell lines progressed to a second round of testing utilizing a more comprehensive 5-dose inhibition assay. The threshold inhibition criteria for progression to the 5-dose assays were selected to efficiently capture compounds with anti-proliferative activity based on historical DTP screening data.
(§2) Concentrations for G150, IC50, TGI, and LC50 were calculated for all cell lines tested, and heat plots were prepared.

[8] = system: colon cancer cell lines
Excerpt: as §1, §2

[9] = system: renal cancer cell lines
Excerpt: as §1, §2

[10] = system: NCI-60 cancer cell lines; test: cells
Excerpt: as §1, §2

[11] = system: colon cancer cell lines; test: cells; conditions: read-out: Average Concentration (M), LC50, Colon
Excerpt: as §1, §2

[12] = system: melanoma cell lines; test: cells; conditions: read-out: Average Concentration (M), LC50, Melanoma
Excerpt: as §1, §2

[13] = read-out: GI50 concentrations (M), order of magnitude

T1 sequence (O15379 whole entry): as the sequence (O15379 whole entry) above
T1 sequence (Q9Y618 395-489 partner limits assumed): as the sequence (Q9Y618 395-489 partner limits assumed) above

SMILES: CC(C)[C@@H]1NC(=O)[C@@]2(C)CSC(=N2)c2csc(n2)CNC(=O)C[C@H](/C=C/CCSC(c2ccccc2)(c2ccccc2)c2ccccc2)OC1=O
- ring closure, yield of all isomers (from CC(C)[C@H](NC(=O)[C@@]1(C)CSC(c2csc(CNC(=O)OC(C)(C)C)n2)=N1)C(=O)O[C@@H](/C=C/CCSC(c1ccccc1)(c1ccccc1)c1ccccc1)CC(=O)OCC[Si](C)(C)C, amide bond, 2 steps): 87%

SMILES: CC(C)[C@@H]1NC(=O)[C@]2(C)CSC(=N2)c2cccc(n2)CNC(=O)C[C@@H](/C=C/CCSC(c2ccccc2)(c2ccccc2)c2ccccc2)NC1=O
- ring closure, yield of all isomers (from COC(=O)C[C@@H](/C=C/CCSC(c1ccccc1)(c1ccccc1)c1ccccc1)NC(=O)[C@@H](NC(=O)[C@]1(C)CSC(c2cccc(CNC(=O)OC(C)(C)C)n2)=N1)C(C)C, amide bond, HATU/HOBt/DIPEA, acetonitrile, 0.97 mM, 3 steps): 33%

SMILES: CC(C)[C@@H]1NC(=O)[C@]2(C)CSC(=N2)c2cccc(n2)CNC(=O)C[C@@H](/C=C/CCSC(c2ccccc2)(c2ccccc2)c2ccccc2)OC1=O
- ring closure, yield of all isomers (from CC(C)[C@H](NC(=O)[C@]1(C)CSC(c2cccc(CNC(=O)OC(C)(C)C)n2)=N1)C(=O)O[C@H](/C=C/CCSC(c1ccccc1)(c1ccccc1)c1ccccc1)CC(=O)OCC[Si](C)(C)C, amide bond, HATU, acetonitrile, 0.96 mM, 18.0 h, 2 steps): 20%

SMILES: CC(C)[C@@H]1NC(=O)[C@]2(C)CSC(=N2)c2ccnc(c2)CNC(=O)C[C@@H](/C=C/CCSC(c2ccccc2)(c2ccccc2)c2ccccc2)NC1=O
- ring closure, yield of all isomers (from COC(=O)C[C@@H](/C=C/CCSC(c1ccccc1)(c1ccccc1)c1ccccc1)NC(=O)[C@@H](NC(=O)[C@]1(C)CSC(c2ccnc(CNC(=O)OC(C)(C)C)c2)=N1)C(C)C, amide bond, HATU/HOBt/DIPEA, acetonitrile, 0.97 mM, 3 steps): 32%

SMILES: CC(C)[C@@H]1NC(=O)[C@]2(C)CSC(=N2)c2ccnc(c2)CNC(=O)C[C@@H](/C=C/CCSC(c2ccccc2)(c2ccccc2)c2ccccc2)OC1=O
- ring closure, yield of all isomers (from CC(C)[C@H](NC(=O)[C@]1(C)CSC(c2ccnc(CNC(=O)OC(C)(C)C)c2)=N1)C(=O)O[C@H](/C=C/CCSC(c1ccccc1)(c1ccccc1)c1ccccc1)CC(=O)OCC[Si](C)(C)C, amide bond, HATU/HOBt/DIPEA, acetonitrile, 1.0 mM, 18.0 h, 2 steps): 23%

SMILES: CC(C)[C@@H]1NC(=O)[C@]2(C)CSC(=N2)c2coc(n2)CNC(=O)C[C@@H](/C=C/CCSC(c2ccccc2)(c2ccccc2)c2ccccc2)OC1=O
- ring closure, yield of all isomers (from CC(C)[C@H](NC(=O)[C@]1(C)CSC(c2coc(CNC(=O)OC(C)(C)C)n2)=N1)C(=O)O[C@H](/C=C/CCSC(c1ccccc1)(c1ccccc1)c1ccccc1)CC(=O)OCC[Si](C)(C)C, amide bond, T3P, DCM, 0.99 mM, 2 steps): 35%

SMILES: CC(C)[C@@H]1NC(=O)[C@]2(C)CSC(=N2)c2csc(n2)CNC(=O)C[C@@H](/C=C/CCSC(c2ccccc2)(c2ccccc2)c2ccccc2)NC1=O
- ring closure, yield of all isomers (from COC(=O)C[C@@H](/C=C/CCSC(c1ccccc1)(c1ccccc1)c1ccccc1)NC(=O)[C@@H](NC(=O)[C@]1(C)CSC(c2csc(CNC(=O)OC(C)(C)C)n2)=N1)C(C)C, amide bond, HATU/iPr2NEt, MeCN, 0.96 mM, 3 steps): 50%

SMILES: C[C@@]12CSC(=N1)c1csc(n1)CNC(=O)C[C@@H](/C=C/CCSC(c1ccccc1)(c1ccccc1)c1ccccc1)OC(=O)[C@@H]1CCCN1C2=O
- ring closure, yield of all isomers (from CC(C)(C)OC(=O)NCc1nc(C2=N[C@](C)(C(=O)N3CCC[C@H]3C(=O)O[C@H](/C=C/CCSC(c3ccccc3)(c3ccccc3)c3ccccc3)CC(=O)OCC[Si](C)(C)C)CS2)cs1, amide bond, HATU/iPr2NEt, MeCN, 0.83 mM, 2 steps): 43%

SMILES: CC(C)[C@@H]1NC(=O)[C@]2(C)CSC(=N2)c2csc(n2)CNC(=O)C[C@@H](/C=C/CCCC(=O)Nc2ccccc2N)OC1=O [Benzamide (12b)]
- IC50 [1]: 14 µM

SMILES: CCCCCCCC(=O)SCCC=CC1CC(=O)NCc2cccc(n2)C2=NC(C)(CS2)C(=O)NC(C(C)C)C(=O)O1 (centres unmarked) [Compound P5, Depsipeptide Pyridyl “IN”]
- IC50 ([2]; Table P1): 332 nM
- IC50 ([3]; Table P1): 204 nM
- IC50 ([4]; Table P1): 350 nM

SMILES: CCCCCCCC(=O)SCCC=CC1CC(=O)NCc2cc(ccn2)C2=NC(C)(CS2)C(=O)NC(C(C)C)C(=O)O1 (centres unmarked) [Compound P7, Depsipeptide Pyridyl “OUT”]
- IC50 ([2]; Table P1): 320 nM
- IC50 ([3]; Table P1): 340 nM
- IC50 ([4]; Table P1): 655 nM

SMILES: CCCCCCCC(=O)SCCC=CC1CC(=O)NCc2cccc(n2)C2=NC(C)(CS2)C(=O)NC(C(C)C)C(=O)N1 (centres unmarked) [Compound P9, Peptide Isostere Pyridyl “IN”]
- IC50 ([2]; Table P1): 332 nM
- IC50 ([3]; Table P1): 340 nM
- IC50 ([4]; Table P1): 472 nM

SMILES: CC(C)[C@@H]1NC(=O)[C@]2(C)CSC(=N2)c2cccc(n2)CNC(=O)C[C@@H](/C=C/CCS)NC1=O [Compound P10, Peptide Isostere Pyridyl “IN” Thiol]
- IC50 ([2]; Table P1): 42.5 nM
- IC50 range in words for HDACs 1-3 [5]: double-digit nM range
- IC50 ([3]; Table P1): 42 nM
- IC50 ([4]; Table P1): 69.8 nM

SMILES: CCCCCCCC(=O)SCC/C=C/[C@@H]1CC(=O)NCc2cc(ccn2)C2=N[C@@](C)(CS2)C(=O)N[C@@H](C(C)C)C(=O)N1 [Compound P11, Peptide Isostere Pyridyl “OUT”]
- IC50 ([2]; Table P1): 846 nM
- IC50 range in words for HDACs 1-3 [5]: high nM-μM range
- IC50 ([3]; Table P1): 817 nM
- IC50 ([4]; Table P1): 1240 nM

SMILES: CCCCCCCC(=O)SCC/C=C/[C@@H]1CC(=O)NCc2nc(cs2)C2=N[C@@](C)(CS2)C(=O)N[C@@H](C(C)C)C(=O)N1 [Largazole peptide isostere]
- IC50 [2]: 1150 nM
- IC50 [3]: 544 nM
- IC50 [4]: 825 nM

SMILES: CC(=O)N[C@@H](CC(C)C)C(=O)N[C@@H](CC(C)C)C(=O)N[C@H](C=O)CCCNC(=N)N [Leupeptin, reference compound]
- IC50 [6]: 0.308 µM

SMILES: CC(C)[C@@H]1NC(=O)[C@]2(C)CSC(=N2)c2csc(n2)CNC(=O)C[C@@H](/C=C/CCCCS)OC1=O [ab6_162alr1 n + 2 thiol]
- IC50 [6]: 0.0785 µM

SMILES: CCCCCCCC(=O)SCC/C=C/[C@@H]1CC(=O)NCc2cccc(n2)C2=N[C@@](C)(CS2)C(=O)N[C@@H](C(C)C)C(=O)O1 [compound of formula bb]
- Percent of Cell Lines Impacted (%), GI50 ([7]; 50% Growth Inhibition): 100%
- Percent of Cell Lines Impacted (%), LC50 ([7]; 50% Lethal Concentration reached): 12%
- Percent of Cell Lines Impacted (%), TGI ([7]; Total Growth Inhibition): 47%
- Total Impacted Cell Lines (n), TGI ([7]; Total Growth Inhibition): 27
- Total Impacted Cell Lines (n), LC50, Colon [8]: 2
- Percent of Cell Lines Impacted (%), LC50, Colon ([8]; five-dose): 29%
- Total Impacted Cell Lines (n), LC50, Renal [9]: 2
- Percent of Cell Lines Impacted (%), LC50, Renal ([9]; five-dose): 25%
- GI50 ([10]; read-out: Average Concentration (M), GI50): 7.62e-08 M
- CC50 [11]: 1.29e-05 M
- CC50 [12]: 7.01e-07 M

SMILES: CCCCCCCC(=O)SCC/C=C/[C@@H]1CC(=O)NCc2nc(cs2)C2=N[C@@](C)(CS2)C(=O)N[C@@H](C(C)C)C(=O)N1 [drawing 78]
- GI50 [10, 13]: 1e-07 M

SMILES: CCCCCCCC(=O)SCC/C=C/[C@@H]1CC(=O)NCc2cccc(n2)C2=N[C@@](C)(CS2)C(=O)N[C@@H](C(C)C)C(=O)O1 [drawing 79]
- GI50 [10, 13]: 1e-08 M
